Earlier results, collected in patent publication US20110123575A1, “MODIFIED RELEASE NIACIN FORMULATIONS” (DR. REDDY'S LABORATORIES LTD., priority 2008, published 2011).

Conditions: white, crystalline powder

- solubility in water: very soluble in water
Structure (SMILES): O=C(O)c1cccnc1 [Niacin, 3-pyridinecarboxylic acid]
